AC50, IC50 and EC50 data for 24 compounds are collected here from ChEMBL document CHEMBL1201862, “PubChem BioAssay data set” (2004).

As usually defined, the AC50 is the concentration giving half of the maximal activity seen. In general, IC50 refers to the concentration at which inhibition is half-maximal. In general, EC50 refers to the concentration needed to bring the measured effect to its halfway point.

Active and inactive are the calls of the source.

Experiment [1] deals with T1, Microphthalmia-associated transcription factor (Homo sapiens, UniProt O75030).
T1 sequence (O75030 whole entry): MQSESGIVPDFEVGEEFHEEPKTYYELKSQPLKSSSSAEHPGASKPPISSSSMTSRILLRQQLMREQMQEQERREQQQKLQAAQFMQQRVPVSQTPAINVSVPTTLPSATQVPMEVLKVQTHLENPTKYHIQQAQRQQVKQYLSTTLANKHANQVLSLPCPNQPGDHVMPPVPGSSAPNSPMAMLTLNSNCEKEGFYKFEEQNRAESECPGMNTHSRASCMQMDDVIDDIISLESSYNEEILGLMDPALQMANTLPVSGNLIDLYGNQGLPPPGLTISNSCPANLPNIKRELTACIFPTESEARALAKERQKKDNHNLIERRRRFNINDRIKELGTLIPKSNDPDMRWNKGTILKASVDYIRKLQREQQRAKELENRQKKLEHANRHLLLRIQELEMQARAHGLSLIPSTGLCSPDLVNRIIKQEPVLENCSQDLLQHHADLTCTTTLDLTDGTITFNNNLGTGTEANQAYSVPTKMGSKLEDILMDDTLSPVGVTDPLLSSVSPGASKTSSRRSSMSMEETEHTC
As to the kind of experiment: reducers of TRPM1 reporter luminescence, concentration series – cell-based, SK-MEL-5, cherry-picked, set 3, MITF inhibitor project, dose response (AID 493073).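 Also: SK-MEL-5 melanoma cells with luciferase driven by the MITF target TRPM1 promoter.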 Format: functional.

Experiment [2] addresses T2, High affinity choline transporter 1 (Homo sapiens, UniProt Q9GZV3).
T2 sequence (Q9GZV3 whole entry): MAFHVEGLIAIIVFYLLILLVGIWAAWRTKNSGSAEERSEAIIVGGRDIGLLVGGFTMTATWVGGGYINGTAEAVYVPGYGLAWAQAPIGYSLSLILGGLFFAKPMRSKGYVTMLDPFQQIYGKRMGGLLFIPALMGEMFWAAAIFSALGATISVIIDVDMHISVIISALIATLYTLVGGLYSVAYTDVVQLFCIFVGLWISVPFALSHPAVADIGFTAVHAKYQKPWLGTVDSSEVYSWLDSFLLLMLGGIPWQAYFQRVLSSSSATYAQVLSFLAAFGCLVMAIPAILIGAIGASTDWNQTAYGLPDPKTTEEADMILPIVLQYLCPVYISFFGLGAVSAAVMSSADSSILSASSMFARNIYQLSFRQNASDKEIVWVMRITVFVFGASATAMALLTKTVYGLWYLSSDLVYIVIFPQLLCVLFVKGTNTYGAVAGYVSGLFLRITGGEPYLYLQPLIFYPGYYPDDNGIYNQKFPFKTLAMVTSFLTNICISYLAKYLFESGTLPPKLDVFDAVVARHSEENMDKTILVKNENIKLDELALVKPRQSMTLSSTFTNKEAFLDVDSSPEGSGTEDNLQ
Briefly: human choline transporter blockers, potency – cell-based, 5-point CRC, membrane potential dye, dose response (AID 504840). Format: functional.

Experiment [3] deals with T3, Fatty acid synthase (Homo sapiens, UniProt P49327). As to the kind of experiment: inhibition of human FAS-TE enzyme activity – biochemical, endpoint fluorescence intensity, uHTS hits, dose response (AID 624327).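 Also: fluorescence from hydrolysis of an O-methyl fluorescein acyl ester substrate by the enzyme.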 It is filed as functional.
Experiment [4] concerns the target T3, Fatty acid synthase. As to the kind of experiment: inhibition of human FAS-TE enzyme activity – biochemical, kinetic fluorescence intensity, dose response (AID 624326).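 Also: rate of fluorescence rise from hydrolysis of a fluorogenic O-methyl fluorescein ester substrate.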 It is filed as functional.
Experiment [5] relates to Streptococcus sp. 'group A'. As to the kind of experiment: Streptococcus pyogenes SK(-)GAS viability under kanamycin – luminescence, BacTiterGlo, confirmation, counter-screen for streptokinase expression inhibitor project, dose response (AID 1900). It is filed as functional, organism-based. Background: Counterscreens check selectivity or assay interference.
Experiment [6] addresses T4, Heat shock factor protein 1 (Mus musculus, UniProt P38532).
T4 sequence (P38532 whole entry): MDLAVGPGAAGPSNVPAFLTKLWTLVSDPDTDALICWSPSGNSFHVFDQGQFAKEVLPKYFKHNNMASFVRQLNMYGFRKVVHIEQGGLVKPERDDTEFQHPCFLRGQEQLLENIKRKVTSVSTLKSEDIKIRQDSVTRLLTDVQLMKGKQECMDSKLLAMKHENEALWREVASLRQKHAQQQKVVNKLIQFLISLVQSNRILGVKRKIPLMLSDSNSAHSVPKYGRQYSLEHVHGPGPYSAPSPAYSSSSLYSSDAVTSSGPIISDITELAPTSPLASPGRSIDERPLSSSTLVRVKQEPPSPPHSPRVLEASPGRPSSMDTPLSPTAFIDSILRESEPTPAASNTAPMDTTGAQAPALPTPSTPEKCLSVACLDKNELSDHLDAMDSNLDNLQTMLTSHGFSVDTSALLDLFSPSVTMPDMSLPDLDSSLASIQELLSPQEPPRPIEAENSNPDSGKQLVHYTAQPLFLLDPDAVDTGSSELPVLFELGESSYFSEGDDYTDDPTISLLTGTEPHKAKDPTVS
Briefly: decrease of HSF1-responsive luciferase luminescence – cell-based, NIH3T3, dose retest, confirmation (AID 2382).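 Also: NIH3T3 fibroblasts with HSF1-driven luciferase reporter stressed by proteasome inhibitor MG132; luminescence from HSF1-driven luciferase expression after 8 hours of MG132 stress.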 Format: functional.

For another experiment, the target named is T5, Streptokinase A (Streptococcus pyogenes serotype M1, UniProt P10520).
T5 sequence (P10520 whole entry): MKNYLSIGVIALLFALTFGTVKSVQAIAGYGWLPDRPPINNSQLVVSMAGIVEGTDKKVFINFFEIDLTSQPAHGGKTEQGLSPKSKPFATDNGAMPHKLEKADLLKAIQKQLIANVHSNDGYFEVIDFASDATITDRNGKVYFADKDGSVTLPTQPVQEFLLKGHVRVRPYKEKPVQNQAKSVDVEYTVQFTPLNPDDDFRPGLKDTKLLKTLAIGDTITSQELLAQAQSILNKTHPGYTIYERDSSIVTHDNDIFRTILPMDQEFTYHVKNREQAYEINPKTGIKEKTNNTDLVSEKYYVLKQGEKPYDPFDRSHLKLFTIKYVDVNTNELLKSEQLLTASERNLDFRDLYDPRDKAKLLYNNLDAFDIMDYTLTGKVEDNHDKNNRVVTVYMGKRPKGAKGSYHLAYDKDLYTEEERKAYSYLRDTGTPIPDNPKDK
As to the kind of experiment: viability-normalized secreted streptokinase activity reduction – plasminogen activation absorbance, OD405, dose response (AID 1914).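 Also: secreted streptokinase activity via plasminogen activation per viability signal from cell pellet.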 Format: functional, Streptococcus pyogenes M1 GAS.

Another experiment deals with Streptococcus. As to the kind of experiment: GAS UMAA2166 growth inhibition – luminescence, BacTiterGlo, counter-screen for streptokinase expression inhibitor project, dose response (AID 1915).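 Also: potency for reduction of bacterial viability or growth.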 It is filed as functional, organism-based.
Experiment [7] has as its target Heat shock protein HSP 90-alpha (Homo sapiens, UniProt P07900). Format: functional, organism-based.
Experiment [8] addresses T6, Ubiquitin-conjugating enzyme E2 N (Homo sapiens, UniProt P61088).
T6 sequence (P61088 whole entry): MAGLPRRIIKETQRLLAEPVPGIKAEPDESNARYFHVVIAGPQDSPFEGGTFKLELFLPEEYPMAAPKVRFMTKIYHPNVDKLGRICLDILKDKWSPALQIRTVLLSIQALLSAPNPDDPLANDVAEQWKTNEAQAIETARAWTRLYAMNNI
Format: functional.

Experiment [9] is described as follows: cells. Format: functional, cell-based.
The nature of experiment [10]: cells. It is filed as functional, cell-based. This is another data set of the same source.
Experiment [11] is described as follows: Luminescence Cell-Based Dose Retest to Confirm Inhibitors of Cancer Stem Cells. [Related pubchem assays (depositor defined):AID2717, AID2721]. The settings on record: Homo sapiens. Format: functional.
Another experiment has as its system INS1. As to the kind of experiment: INS-1E survival protection against cytokine death – cell-based, luminescence, retest, dose response (AID 449756).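 Also: cell death triggered by IL-1 beta plus TNF-alpha plus IFN-gamma mixture; protective hits raise ATP signal compared with cytokine alone wells.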 The settings on record: Rattus norvegicus. Format: functional.
A short description of experiment [12]: viability of PTEN-deleted HCT116 cells – cell-based, HCT116 PTEN knockout, dose response (AID 1047).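 Also: HCT116 colon tumor cells with PTEN knocked out; cells exposed to compound for 60 hours before readout; potency for loss of cell viability measured by luminescence.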 Format: functional.
The nature of experiment [13]: viability of HCT116 lacking mutant beta-catenin – cell-based, human colon tumor, dose response (AID 1045).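 Also: HCT116 colon tumor cells with beta catenin knocked out; cells exposed to compound for 60 hours.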 It is filed as functional.

T3 sequence (P49327 whole entry): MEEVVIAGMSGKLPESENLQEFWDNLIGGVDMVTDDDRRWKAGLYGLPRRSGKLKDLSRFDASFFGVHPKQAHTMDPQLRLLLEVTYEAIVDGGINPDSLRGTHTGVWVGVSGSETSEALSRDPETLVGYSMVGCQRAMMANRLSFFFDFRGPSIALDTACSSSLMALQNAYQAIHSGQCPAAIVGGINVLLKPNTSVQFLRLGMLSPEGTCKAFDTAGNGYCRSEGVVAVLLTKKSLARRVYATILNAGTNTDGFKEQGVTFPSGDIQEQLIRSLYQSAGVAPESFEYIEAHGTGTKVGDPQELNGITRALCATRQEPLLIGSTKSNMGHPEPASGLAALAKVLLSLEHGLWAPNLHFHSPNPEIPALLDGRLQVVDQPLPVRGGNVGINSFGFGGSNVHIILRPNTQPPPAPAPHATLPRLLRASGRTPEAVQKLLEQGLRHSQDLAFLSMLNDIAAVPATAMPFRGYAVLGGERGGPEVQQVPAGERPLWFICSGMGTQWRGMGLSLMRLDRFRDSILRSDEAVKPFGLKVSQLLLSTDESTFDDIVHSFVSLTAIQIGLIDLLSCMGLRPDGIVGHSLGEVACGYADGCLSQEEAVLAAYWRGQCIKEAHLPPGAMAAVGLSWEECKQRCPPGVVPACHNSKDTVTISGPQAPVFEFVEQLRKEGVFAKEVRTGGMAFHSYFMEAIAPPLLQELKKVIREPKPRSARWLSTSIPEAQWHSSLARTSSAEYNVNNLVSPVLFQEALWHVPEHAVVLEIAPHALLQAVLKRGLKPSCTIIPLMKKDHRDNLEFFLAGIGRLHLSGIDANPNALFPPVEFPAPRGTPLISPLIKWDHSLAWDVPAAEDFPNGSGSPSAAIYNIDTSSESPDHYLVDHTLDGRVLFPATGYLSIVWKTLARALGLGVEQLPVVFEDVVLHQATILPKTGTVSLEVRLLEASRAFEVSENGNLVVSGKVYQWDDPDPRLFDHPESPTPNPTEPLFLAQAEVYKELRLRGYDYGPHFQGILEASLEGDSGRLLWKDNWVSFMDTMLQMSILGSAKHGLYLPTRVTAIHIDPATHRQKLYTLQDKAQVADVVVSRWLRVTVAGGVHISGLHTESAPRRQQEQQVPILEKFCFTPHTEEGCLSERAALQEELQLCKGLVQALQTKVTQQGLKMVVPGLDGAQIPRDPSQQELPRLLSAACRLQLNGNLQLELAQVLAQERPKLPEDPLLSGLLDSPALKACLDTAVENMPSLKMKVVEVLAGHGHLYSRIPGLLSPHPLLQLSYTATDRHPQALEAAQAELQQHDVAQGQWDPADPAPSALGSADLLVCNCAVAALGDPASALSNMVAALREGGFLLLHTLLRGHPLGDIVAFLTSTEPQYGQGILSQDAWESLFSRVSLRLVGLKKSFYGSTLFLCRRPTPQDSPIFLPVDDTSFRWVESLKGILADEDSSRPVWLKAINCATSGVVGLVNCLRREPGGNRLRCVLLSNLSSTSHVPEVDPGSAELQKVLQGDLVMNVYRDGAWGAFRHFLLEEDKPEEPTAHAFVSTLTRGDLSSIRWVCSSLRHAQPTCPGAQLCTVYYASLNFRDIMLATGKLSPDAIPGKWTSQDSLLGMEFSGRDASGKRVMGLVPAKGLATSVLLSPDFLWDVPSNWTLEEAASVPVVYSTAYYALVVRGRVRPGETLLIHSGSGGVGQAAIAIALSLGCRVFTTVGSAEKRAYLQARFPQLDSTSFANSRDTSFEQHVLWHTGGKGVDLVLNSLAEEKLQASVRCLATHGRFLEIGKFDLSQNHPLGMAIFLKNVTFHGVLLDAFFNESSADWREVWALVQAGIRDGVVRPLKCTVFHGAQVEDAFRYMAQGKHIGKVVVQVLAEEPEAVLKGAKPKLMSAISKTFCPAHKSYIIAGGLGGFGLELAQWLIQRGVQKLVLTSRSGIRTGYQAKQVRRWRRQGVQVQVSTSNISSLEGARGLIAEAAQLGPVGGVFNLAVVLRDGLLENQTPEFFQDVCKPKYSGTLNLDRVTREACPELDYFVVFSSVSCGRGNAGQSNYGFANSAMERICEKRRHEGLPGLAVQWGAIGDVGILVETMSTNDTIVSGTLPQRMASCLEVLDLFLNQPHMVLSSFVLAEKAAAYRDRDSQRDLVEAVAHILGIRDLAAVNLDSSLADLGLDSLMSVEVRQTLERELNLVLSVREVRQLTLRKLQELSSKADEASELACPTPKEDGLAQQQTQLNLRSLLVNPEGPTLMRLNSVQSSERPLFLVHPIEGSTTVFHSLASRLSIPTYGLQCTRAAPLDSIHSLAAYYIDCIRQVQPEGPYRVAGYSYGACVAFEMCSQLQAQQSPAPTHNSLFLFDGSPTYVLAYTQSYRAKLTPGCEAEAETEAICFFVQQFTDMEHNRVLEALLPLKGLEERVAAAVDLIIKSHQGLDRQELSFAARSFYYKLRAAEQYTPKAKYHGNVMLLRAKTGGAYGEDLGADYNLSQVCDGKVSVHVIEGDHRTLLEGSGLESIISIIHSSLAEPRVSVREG

`CCN1c2ccccc2NC2C1C(C(C)=O)C(=O)N2c1ccc(Cl)cc1` (stereo unspecified): the AC50 in [1] was 12.7 µM (active).

For `Cc1ccc(C(=O)N2CCN(c3ccccc3)CC2)cc1S(=O)(=O)N1CCCC1`, the IC50 in experiment [2] is 11 µM (active).

For the compound `Cc1nn(Cc2ccc([N+](=O)[O-])cc2)c(=O)n1-c1cccc(Cl)c1`, the 50% inhibitory concentration (IC50) at Fatty acid synthase [3] was 5.54 µM (active); at Fatty acid synthase [4] it was 8.36 µM (active).

Take `CC(=O)c1cc(C#N)c(SCCC(C)C)nc1C`: the results for the IC50 on Fatty acid synthase [3] and at Fatty acid synthase [4] were 9.77 µM (active) and 9.54 µM (active), respectively.

On to `Cc1ccc(N/N=C(\C=O)C(=O)c2ccc(Cl)cc2)cc1`, for which the EC50 in experiment [5] is 8.86 µM (active); in experiment [6] it was 4.78 µM (active); on Streptokinase A, > 50 µM (not active); in the experiment with Streptococcus, 14.8 µM (active). Further, in experiment [7], the AC50 was 5.6 µM (active).

As to `Cn1c(SCC(=O)Nc2ncc(C(F)(F)F)cc2Cl)nnc1-c1ccc(Cl)cc1`, the concentration for a half-maximal effect (EC50) in experiment [6] is given as > 195 µM (not active). Further, the IC50 was 0.551 µM (active) on Fatty acid synthase [3] and 0.572 µM (active) at Fatty acid synthase [4].

On to `COc1ccc([N+](=O)[O-])cc1NC(=O)N(C)Cc1ccco1`, for which the IC50 at Fatty acid synthase [3] was 17.7 µM (active); at Fatty acid synthase [4] it was 21.1 µM (inactive).

As for `CC(=O)NC(C)c1cc(Cl)c2ccccc2c1O` (stereo unspecified), the IC50 in experiment [8] is > 20 µM (inactive).

As to `CCS(=O)(=O)C1=NSC2=NC(=O)/C(=C\c3ccc(OS(=O)(=O)c4ccccc4)c(OC)c3)C(=N)N21`, the IC50 in experiment [2] is 13.5 µM (active).

`O=C(N/N=C/c1ccccn1)c1cc(-c2ccccc2Cl)n[nH]1`: the IC50 in experiment [8] is > 20 µM (inactive).

For `COC(=O)CSc1nnc(-c2ccc(NS(=O)(=O)c3ccccc3)cc2)o1`, the IC50 in [2] is 12 µM (active).

With `Cc1ccc(C(=O)NCC(=O)OCc2nnc(-c3ccc([N+](=O)[O-])cc3)o2)cc1`, the IC50 at Fatty acid synthase [3] is 4.73 µM (active); at Fatty acid synthase [4] it was 5.56 µM (active).

Take `COc1ccc(OCCCC(=O)Nc2ccc(S(=O)(=O)N3CCOCC3)cc2)cc1`: the IC50 in experiment [8] was > 20 µM (inactive).

As to `COc1ccccc1/C=C1\SC(=O)N(CC(=O)NCCCn2ccnc2)C1=O`, in [2], the IC50 was 19.1 µM (active).

Regarding `C=CC(n1cncn1)C(O)(c1ccccc1)c1ccccc1` (stereo unspecified), the AC50 in experiment [7] is 0.826 µM (active).

Consider `Cc1cccc(C)c1/N=C1\C(Cl)=C(O)OC1OC(=O)c1ccccc1` (stereo unspecified), for which the IC50 on Fatty acid synthase [3] was 4.46 µM (active); at Fatty acid synthase [4], 4.54 µM (active).

For `COc1ccc2nc(C)cc(SCC(=O)N/N=C/c3ccc(O)cc3O)c2c1`, the EC50 in the experiment “cells [9]” is 12.9 µM (active); in the experiment “cells [10]” it was > 350 µM (not active). In addition, the AC50 in experiment [11] is 2.74 µM (active); in [1], 10.1 µM (active); in the experiment with INS1 it was 2.65 µM (active).

`CC1=C(C(=O)OCc2ccccc2)C(/C=C/c2ccccc2)NC(S)=N1` (stereo unspecified): in experiment [7], the AC50 was 4.08 µM (active).

In the case of `CCN(CCO)C1CC(=O)N(c2ccccc2C)C1=O` (stereo unspecified), the AC50 in experiment [7] is 2.14 µM (active).

With `COc1ccc(C2=CC3=C(Br)C(=O)C(C)(O)C(=O)C3=CO2)cc1` (stereo unspecified), the AC50 in experiment [7] was 2.62 µM (active).

On to `Cc1ccc(C(C)C)c(OCCOCCN2CCNCC2)c1`, for which, in [2], the IC50 was 13.8 µM (active).

For `CCN(CC)S(=O)(=O)c1cccc(C(=O)NCC(c2ccccc2)N(C)C)c1` (stereo unspecified), in [7], the AC50 is 3.2 µM (active).

Turning to `Cc1cc(C2N=C(N)Nc3nc4ccccc4n32)c(C)n1-c1ccccc1Cl` (stereo unspecified), the EC50 in experiment [12] was 30.1 µM (active); in experiment [13], 23.4 µM (active). The IC50 in experiment [8] was > 20 µM (inactive).

In the case of `O=C(CCC1CCCC1)NCCCNC(=O)CCC1CCCC1`, in [2], the IC50 is 15.8 µM (active).
